Earlier results in US10682361B2, “Sustained release bimatoprost, bimatoprost analogs, prostamides and prostaglandins for fat reduction” (ALLERGAN, INC., priority 2013, dated 2020).

Legend:
fat = settings: topical administration
adipocytes = settings: topical administration

Structure (SMILES): CCNC(=O)CCC/C=C\C[C@@H]1[C@@H](/C=C/[C@@H](O)CCc2ccccc2)[C@H](O)C[C@@H]1O [bimatoprost]
- clinical fat reduction (fat): clinical evidence of fat reduction
- effect on adipocytes in animal models (adipocytes): effectively prevent apidocyte formation and maturation and to atrophy adipocytes
